Measured values: patent publication US4849434A, “Novel thiazolidin-4-one derivatives and acid addition salts therof” (Sumitomo Pharmaceuticals Company, Limited, priority 1986, dated 1989)
≈ marks a conversion by molar mass, not a printed value. Where two headings read alike, the source gives them in different places.

Legend:
[1] = test system: rabbit platelet aggregation caused by PAF; experiment: Inhibition of PAF-induced platelet aggregation in vitro test; assay type: cell-based, rabbit (Japanese white crossbred male); conditions: rabbit PRP; for Specific activity relative to the activity of the compound of Example 1: inhibition of PAF-induced aggregation, compound of Example 1 = 1
Protocol: The inhibition of PAF-induced platelet aggregation was examined by use of a platelet-rich plasma [PRP] of a rabbit according to the method of Mustard et al. [J. F. Mustard et al., J. Lab. Clin. Med., 64, 548 (1964)], which is an improved version of the method of Born [G. V. R. Born, J. Physiol., London, 162, 67 (1962)]. Thus, 80 to 100 ml of blood per animal was collected from the carotid artery of a Japanese white crossbred male rabbit without anesthesia into a polyethylene vessel in which 1/10 the volume of a 3.8% sodium citrate solution had been placed beforehand. A portion (about 3 ml) of the blood thus collected was subjected to high speed centrifugation (11,000 rpm, 60 seconds) to obtain a platelet-poor plasma (PPP) as supernatant. The remainder of the blood was subjected to low speed centrifugation (1,000 rpm, 10 minutes) to obtain a platelet-richplasma (PRP) as supernatant.
The platelet aggregation was evaluated by nephelometry, the determination being made with PRP stirred at 1,000 rpm at 37° C. by use of an aggregater (Hematracer, Niko Bioscience Co.). The platelet aggregation activity was expressed in terms of the percent of light transmission, that of PRP being taken as 0% and that of PPP being taken as 100%. A 0.2 ml portion of PRP was placed in a glass cuvette containing a silicone-treatediron stirring rod, and 2 μl of dimethyl sulfoxide was added thereto. After 2 minutes, a PAF solution in 0.25% BSA physiological saline was added thereto to give a final concentration of PAF of […] and the maximum aggregation was determined. To examine the inhibitory activity of test compounds for the platelet aggregation caused by PAF, 2 μl of a test compound dissolved in dimethyl sulfoxide was added in place of dimethyl sulfoxide described above. The PAF inhibitory rate of a test compound was calculated according to the following equation: [formula]

[2] = test system: platelet aggregation caused by PAF; experiment: Inhibition of platelet aggregation, outside-living-body test (guinea pig, oral); assay type: in vivo; conditions: Cavia porcellus, EC50 is of PAF, higher = more inhibition, read-out: EC50 value (PAF concentration necessary for causing an aggregation corresponding to 50% of the maximum PAF reaction)
Protocol: (§1) The test compound was intravenously administered (30 mg/kg) to a rabbit or orally administered (50 mg/kg) to a guinea pig. Blood samples were collected, and the extent of platelet aggregation caused by 10^-12 -10^-6 M of PAF was examined. The numerical values in the Table show the PAF concentrations (EC50 nM) necessary for causing an aggregation corresponding to 50% of the maximum PAF reaction.

[3] = test system: platelet aggregation caused by PAF; experiment: Inhibition of platelet aggregation, outside-living-body test (rabbit, intravenous); assay type: in vivo; conditions: Oryctolagus cuniculus, EC50 is of PAF, higher = more inhibition, read-out: EC50 value (PAF concentration necessary for causing an aggregation corresponding to 50% of the maximum PAF reaction)
Protocol: as §1

Compound | Specific activity relative to the activity of the compound of Example 1 [1] | also measured
C=CCN1C(=O)C(c2ccc(Cl)cc2)SC1c1cccnc1 (single isomer, unassigned) [Example 17] | 1.0 | 
C#CCN1C(=O)C(c2ccc(Cl)cc2)SC1c1cccnc1 (single isomer, unassigned) [Example 19] | 1.2 | 
COc1ccc(CCN2C(=O)C(c3ccc(Cl)cc3)SC2c2cccnc2)cc1OC (single isomer, unassigned) [Example 21] | 2.2 | 
CC(=O)OCCN1C(=O)C(c2ccc(Cl)cc2)SC1c1cccnc1 (single isomer, unassigned) [Example 32] | 1.8 | 
CN1C(=O)C(c2ccc(Cl)cc2)SC1c1cccnc1 (stereo not shown) [Example 1, 5-(4-chlorophenyl)-3-methyl-2-(3-pyridyl)thiazolidin-4-one] |  | EC50 at 50 mg/kg ([2]; 0 hr after administration): 0.23 nM; EC50 at 50 mg/kg ([2]; 0.5 hr after administration): 10 nM; EC50 at 50 mg/kg ([2]; 1 hr after administration): 17 nM; EC50 at 50 mg/kg ([2]; 2 hr after administration): 3 nM; EC50 at 50 mg/kg ([2]; 4 hr after administration): 1 nM; EC50 at 30 mg/kg ([3]; 0 hr after administration): 6.2 nM; EC50 at 30 mg/kg ([3]; 0.5 hr after administration): 26 nM; EC50 at 30 mg/kg ([3]; 1 hr after administration): 20 nM; EC50 at 30 mg/kg ([3]; 2 hr after administration): 16 nM; EC50 at 30 mg/kg ([3]; 4 hr after administration): 14 nM; IC50 ([1]; Oryctolagus cuniculus, Platelet, PAF-induced aggregation): 5 µg/mL (≈ 16.4 µM)
CN1C(=O)C(c2ccc(F)cc2)SC1c1cccnc1 (stereo not shown) [Example 4] | 1.3 | 
CN1C(=O)C(c2cccc3ccccc23)SC1c1cccnc1 (stereo not shown) [Example 5] | 0.9 | 
COc1ccc(C2SC(c3cccnc3)N(C)C2=O)cc1OC (stereo not shown) [Example 11] | 0.7 | 
CN1C(=O)C(c2c(Cl)cccc2Cl)SC1c1cccnc1 (stereo not shown) [Example 13] | 2.3 | 
CN1C(=O)C(c2ccccc2)SC1c1cccnc1 (stereo not shown) [Example 14] | 1.4 | 
CCN1C(=O)C(c2ccc(Cl)cc2)SC1c1cccnc1 (stereo not shown) [Example 15] | 0.5 | 
O=C1C(c2ccc(Cl)cc2)SC(c2cccnc2)N1CCCO (stereo not shown) [Example 27] | 0.6 | 
